Where “and” joins values, the source holds several entries; their conditions need not be identical. Equal entries are not always repeated. Structures can show the parent of a compound that is named as a salt. Where two headings read alike, the source gives them in different places.
Columns and labels:
[1] = test system: erythroid progenitor cells (EPCs); assay: Fetal hemoglobin (HbF) ELISA in day 7 erythroid progenitor cells; assay type: cell-based, human; settings: Homo sapiens, Erythroid progenitor cell, HbF ELISA, day 7 EPCs, 5 days; read-out: EPC ELISA (pEC50 category) (converted);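 note: for fetal hemoglobin induction normalized to vehicle-treated cells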
Procedure, shortened: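 CD34+-derived EPCs, 1,000 cells/well, rhEPO 3 U/mL; Compound A 22-pt series, […]; 5 d, 37° C, 5% CO2. Freeze-thaw lysis, anti-HbF capture + HRP anti-HbF, TMB, OD450. Normalized to DMSO wells.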

DNMT1 = DNMT1 (Homo sapiens, UniProt P26358); assay: DNMT1 biochemical activity, breaklight assay and/or SPA assay
DNMT1, sequence (P26358 whole entry, looked up): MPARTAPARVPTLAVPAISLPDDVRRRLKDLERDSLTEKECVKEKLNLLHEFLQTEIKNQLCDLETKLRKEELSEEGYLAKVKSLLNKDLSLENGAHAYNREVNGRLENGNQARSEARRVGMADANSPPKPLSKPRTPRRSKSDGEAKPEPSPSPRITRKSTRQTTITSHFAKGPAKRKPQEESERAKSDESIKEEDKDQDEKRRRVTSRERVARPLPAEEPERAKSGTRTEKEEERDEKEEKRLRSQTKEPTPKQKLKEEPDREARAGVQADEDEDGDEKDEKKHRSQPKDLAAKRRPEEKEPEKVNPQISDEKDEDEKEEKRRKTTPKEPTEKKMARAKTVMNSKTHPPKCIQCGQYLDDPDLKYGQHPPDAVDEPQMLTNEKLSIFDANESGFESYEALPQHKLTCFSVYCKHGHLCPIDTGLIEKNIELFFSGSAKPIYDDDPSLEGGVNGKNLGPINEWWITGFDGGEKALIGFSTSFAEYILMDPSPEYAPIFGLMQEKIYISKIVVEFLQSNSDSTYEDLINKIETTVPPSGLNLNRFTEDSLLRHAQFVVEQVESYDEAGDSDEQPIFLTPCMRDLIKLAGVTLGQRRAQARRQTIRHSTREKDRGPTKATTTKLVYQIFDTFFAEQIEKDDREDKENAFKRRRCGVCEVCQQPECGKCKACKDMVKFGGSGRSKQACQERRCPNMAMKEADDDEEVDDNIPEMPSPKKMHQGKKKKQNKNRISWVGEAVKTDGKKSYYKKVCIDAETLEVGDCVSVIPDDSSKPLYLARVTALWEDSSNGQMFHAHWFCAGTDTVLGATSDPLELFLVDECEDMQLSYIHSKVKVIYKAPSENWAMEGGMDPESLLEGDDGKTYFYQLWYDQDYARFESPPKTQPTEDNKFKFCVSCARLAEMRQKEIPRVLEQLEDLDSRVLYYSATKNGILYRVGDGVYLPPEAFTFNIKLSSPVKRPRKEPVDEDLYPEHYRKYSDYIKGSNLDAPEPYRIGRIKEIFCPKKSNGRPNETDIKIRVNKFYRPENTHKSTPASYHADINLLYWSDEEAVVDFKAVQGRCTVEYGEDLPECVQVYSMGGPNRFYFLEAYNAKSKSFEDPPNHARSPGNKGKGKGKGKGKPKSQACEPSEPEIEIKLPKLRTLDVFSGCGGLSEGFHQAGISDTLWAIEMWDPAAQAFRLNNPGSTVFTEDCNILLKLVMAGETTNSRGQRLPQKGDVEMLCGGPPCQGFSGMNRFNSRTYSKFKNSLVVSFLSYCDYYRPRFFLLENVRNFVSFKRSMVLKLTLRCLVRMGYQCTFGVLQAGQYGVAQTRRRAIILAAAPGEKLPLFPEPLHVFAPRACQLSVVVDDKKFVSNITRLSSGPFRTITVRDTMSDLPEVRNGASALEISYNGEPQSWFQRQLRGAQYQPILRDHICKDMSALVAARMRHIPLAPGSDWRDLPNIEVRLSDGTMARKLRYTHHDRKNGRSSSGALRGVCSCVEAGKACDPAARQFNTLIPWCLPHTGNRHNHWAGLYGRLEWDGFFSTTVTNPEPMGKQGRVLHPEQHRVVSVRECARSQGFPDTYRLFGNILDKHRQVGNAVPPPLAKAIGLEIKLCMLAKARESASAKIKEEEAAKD

[2] = binned activity in either the breaklight or the SPA assay, read-out: DNMT1 BioChemical (pIC50 category) (converted)
[3] = binned activity in either the breaklight or the SPA assay

SMILES | EC50 [1] [nM] | IC50 (DNMT1; [2]) [nM] | DNMT1 BioChemical (pIC50 category) (DNMT1; [3]) | IC50 (DNMT1; breaklight assay and/or SPA assay, repeated experimental runs, read-out: average pIC50 against DNMT1 (converted))
CCc1c(C#N)c(SC(C(N)=O)c2ccccc2)nc(N2CCCN(CC(C)(C)O)CC2)c1C#N (stereo not drawn) [Example 194, 2-((3,5-Dicyano-4-ethyl-6-(4-(2-hydroxy-2-methylpropyl)-1,4-diazepan-1-yl)pyridin-2-yl)thio)-2-phenylacetamide] | < 316 | 316 to 1000 | – | –
CCc1c(C#N)c(SC(C(N)=O)c2ccccc2)nc(N2CCN(Cc3cncs3)CC2)c1C#N (stereo not drawn) [Example 195, 2-((3,5-Dicyano-4-ethyl-6-(4-(thiazol-5-ylmethyl)piperazin-1-yl)pyridin-2-yl)thio)-2-phenylacetamide] | 316 to 1000 | 316 to 1000 | – | –
CCc1c(C#N)c(SC(C(N)=O)c2ccc(F)cc2)nc(N2CCNCC2)c1C#N (stereo not drawn) [Example 196, 2-((3,5-Dicyano-4-ethyl-6-(piperazin-1-yl)pyridin-2-yl)thio)-2-(4-fluorophenyl)acetamide, Trifluoroacetic Acid Salt] | < 316 | – | D (Category D: ≥6.5) | –
CCc1c(C#N)c(SC(C(N)=O)c2ccccc2)nc(N2CCN(Cc3cnsc3)CC2)c1C#N (stereo not drawn) [Example 197, 2-((3,5-Dicyano-4-ethyl-6-(4-(isothiazol-4-ylmethyl)piperazin-1-yl)pyridin-2-yl)thio)-2-phenylacetamide] | 316 to 1000 | 316 to 1000 | – | –
CCc1c(C#N)c(SC(C(N)=O)c2ccc(F)cc2)nc(N(C)C)c1C#N (stereo not drawn) [Example 198, 2-((3,5-Dicyano-6-(dimethylamino)-4-ethylpyridin-2-yl)thio)-2-(4-fluorophenyl)acetamide] | 316 to 1000 | – | D (Category D: ≥6.5) | –
CCc1c(C#N)c(SC(C(N)=O)c2ccc(F)cn2)nc(N(C)C)c1C#N (stereo not drawn) [Example 199] | > 31600 | – | D (Category D: ≥6.5) | –
CCc1c(C#N)c(SC(C(N)=O)c2ccccc2)nc(N2CCN(Cc3ccoc3)CC2)c1C#N (stereo not drawn) [Example 200, 2-((3,5-Dicyano-4-ethyl-6-(4-(furan-3-ylmethyl)piperazin-1-yl)pyridin-2-yl)thio)-2-phenylacetamide] | 1000 to 31600 | 316 to 1000 | – | –
CCc1c(C#N)c(SCCN2CCOCC2)nc(SC(C(N)=O)c2ccccc2)c1C#N (stereo not drawn) [Example 201, 2-((3,5-Dicyano-4-ethyl-6-((2-morpholinoethyl)thio)pyridin-2-yl)thio)-2-phenylacetamide] | 316 to 1000 | 316 to 1000 | – | –
CSc1c(C#N)c(SC(C(N)=O)c2ccccc2)nc(N2CCCN(C)CC2)c1C#N (stereo not drawn) [Example 202, 2-((3,5-Dicyano-6-(4-methyl-1,4-diazepan-1-yl)-4-(methylthio)pyridin-2-yl)thio)-2-phenylacetamide] | 316 to 1000 | 316 to 1000 | – | –
CCc1c(Cl)c(SC(C(N)=O)c2ccccc2)nc(N2CCCN(CCO)CC2)c1Cl (stereo not drawn) [Example 203, 2-((3,5-Dichloro-4-ethyl-6-(4-(2-hydroxyethyl)-1,4-diazepan-1-yl)pyridin-2-yl)thio)-2-phenylacetamide] | > 31600 | 316 to 1000 | – | –
CCc1c(C#N)c(SC(C(N)=O)c2ccccc2)nc(N2CC3NCCOC3C2)c1C#N (stereo not drawn) [Example 204, 2-((3,5-Dicyano-4-ethyl-6-(hexahydropyrrolo[3,4-b][1,4]oxazin-6(2H)-yl)pyridin-2-yl)thio)-2-phenylacetamide] | 1000 to 31600 | 316 to 1000 | – | –
CCc1c(C#N)c(SC(C(N)=O)c2ccc(C)cn2)nc(N2CCCN(C)CC2)c1C#N (stereo not drawn) [Example 205, 2-((3,5-Dicyano-4-ethyl-6-(4-methyl-1,4-diazepan-1-yl)pyridin-2-yl)thio)-2-(5-methylpyridin-2-yl)acetamide] | < 316 | – | D (Category D: ≥6.5) | –
CCc1c(C#N)c(SC(C(N)=O)c2cccc(F)n2)nc(N2CCCN(C)CC2)c1C#N (stereo not drawn) [Example 206, 2-((3,5-Dicyano-4-ethyl-6-(4-methyl-1,4-diazepan-1-yl)pyridin-2-yl)thio)-2-(6-fluoropyridin-2-yl)acetamide] | > 31600 | 316 to 1000 | – | –
CCc1c(C#N)c(SC(C(N)=O)c2ccc(F)cc2)nc(N2CCC(N(C)C)CC2)c1C#N (stereo not drawn) [Example 207, 2-((3,5-Dicyano-6-(4-(dimethylamino)piperidin-1-yl)-4-ethylpyridin-2-yl)thio)-2-(4-fluorophenyl)acetamide] | < 316 | 316 to 1000 | – | –
CCc1c(C#N)c(SC(C(N)=O)c2cc(C)ccn2)nc(N2CCCN(C)CC2)c1C#N (stereo not drawn) [Example 208] | 316 to 1000 | 316 to 1000 | – | –
CCc1c(C#N)c(SC(C(N)=O)c2ncccc2OC)nc(N2CCCN(C)CC2)c1C#N (stereo not drawn) [Example 209, 2-((3,5-Dicyano-4-ethyl-6-(4-methyl-1,4-diazepan-1-yl)pyridin-2-yl)thio)-2-(3-methoxypyridin-2-yl)acetamide] | 316 to 1000 | 316 to 1000 | – | –

SMILES | EC50 [1] [nM] | IC50 (DNMT1; [2]) [nM] | DNMT1 BioChemical (pIC50 category) (DNMT1; [3]) | IC50 (DNMT1; breaklight assay and/or SPA assay, repeated experimental runs, read-out: average pIC50 against DNMT1 (converted))
CCc1c(C#N)c(SC(C(N)=O)c2ccc(F)cc2F)nc(N2CCC(N(C)C)CC2)c1C#N (stereo not drawn) [Example 210, 2-((3,5-Dicyano-6-(4-(dimethylamino)piperidin-1-yl)-4-ethylpyridin-2-yl)thio)-2-(2,4-difluorophenyl)acetamide] | < 316 | – | D (Category D: ≥6.5) | –
CCc1c(C#N)c(SC(C(N)=O)c2ccc(F)cn2)nc(N2CCC(N3CCCC3)CC2)c1C#N (stereo not drawn) [Example 211, 2-((3,5-Dicyano-4-ethyl-6-(4-(pyrrolidin-1-yl)piperidin-1-yl)pyridin-2-yl)thio)-2-(5-fluoropyridin-2-yl)acetamide, Formic Acid Salt] | < 316 | 316 to 1000 | – | –
CCOc1c(C#N)c(SC(C)C(N)=O)nc(N2CCCN(CCO)CC2)c1C#N (stereo not drawn) [Example 212, 2-((3,5-Dicyano-4-ethoxy-6-(4-(2-hydroxyethyl)-1,4-diazepan-1-yl)pyridin-2-yl)thio)propanamide] | 1000 to 31600 | 316 to 1000 | – | –
CCCOc1c(C#N)c(SC(C(N)=O)c2ccccc2)nc(N2CCCN(CCO)CC2)c1C#N (stereo not drawn) [Example 213, 2-((3,5-Dicyano-6-(4-(2-hydroxyethyl)-1,4-diazepan-1-yl)-4-propoxypyridin-2-yl)thio)-2-phenylacetamide] | 1000 to 31600 | 316 to 1000 | – | –
CCc1c(C#N)c(SC(C(N)=O)c2cc(OC)ccn2)nc(N2CCCN(C)CC2)c1C#N (stereo not drawn) [Example 214, 2-((3,5-Dicyano-4-ethyl-6-(4-methyl-1,4-diazepan-1-yl)pyridin-2-yl)thio)-2-(4-methoxypyridin-2-yl)acetamide] | > 31600 | 1000 to 31600 | – | –
CCc1c(C#N)c(SC(C(N)=O)c2ccccc2)nc(N2CCC3(CCN(C)C3)CC2)c1C#N (stereo not drawn) [Example 215, 2-((3,5-Dicyano-4-ethyl6-(2-methyl-2,8-diazaspiro[4.5]decan-8-yl)pyridin-2-yl)thio)-2-phenylacetamide] | < 316 | – | D (Category D: ≥6.5) | –
CCc1c(C#N)c(SC(C(N)=O)c2ccc(F)c(F)c2)nc(N2CCC(N(C)C)CC2)c1C#N (stereo not drawn) [Example 216, 2-((3,5-Dicyano-6-(4-(dimethylamino)piperidin-1-yl)-4-ethylpyridin-2-yl)thio)-2-(3,4-difluorophenyl)acetamide] | < 316 | 1000 to 31600 | – | ≥ 1000 nM and 1580 nM
CCc1c(C#N)c(SC(C(N)=O)c2ccccc2)nc(N2CCC(C(N)=O)CC2)c1C#N (stereo not drawn) [Example 217, 1-(6-((2-Amino-2-oxo-1-phenylethyl)thio)-3,5-dicyano-4-ethylpyridin-2-yl)piperidine-4-carboxamide] | 1000 to 31600 | 316 to 1000 | – | –
CCc1c(C#N)c(SCCN(C)C)nc(SC(C(N)=O)c2ccccc2)c1C#N (stereo not drawn) [Example 218, 2-((3,5-Dicyano-6-((2-(dimethylamino)ethyl)thio)-4-ethylpyridin-2-yl)thio)-2-phenylacetamide] | < 316 | 316 to 1000 | – | –
CCc1c(C#N)c(SC(C(N)=O)c2ccccc2)nc(N2C[C@@H](O)[C@@H](O)C2)c1C#N (stereo partly drawn) [Example 219, 2-((3,5-Dicyano-6-((3S,4R)-3,4-dihydroxypyrrolidin-1-yl)-4-ethylpyridin-2-yl)thio)-2-phenylacetamide] | 1000 to 31600 | 316 to 1000 | – | –
CCc1c(C#N)c(SC(C(N)=O)c2ncccc2F)nc(N2CCCN(C)CC2)c1C#N (stereo not drawn) [Example 220, 2-((3,5-Dicyano-4-ethyl-6-(4-methyl-1,4-diazepan-1-yl)pyridin-2-yl)thio)-2-(3-fluoropyridin-2-yl) acetamide] | < 316 | 316 to 1000 | – | –
CCc1c(C#N)c(SC(C(N)=O)c2ccc(OC)cn2)nc(N2CCCN(C)CC2)c1C#N (stereo not drawn) [Example 221, 2-((3,5-Dicyano-4-ethyl-6-(4-methyl-1,4-diazepan-1-yl)pyridin-2-yl)thio)-2-(5-methoxypyridin-2-yl)acetamide] | < 316 | 316 to 1000 | – | –
CCc1c(C#N)c(SC(C(N)=O)c2ccc(F)cc2)nc(N2CCN(C(C)(C)CO)CC2)c1C#N (stereo not drawn) [Example 222, 2-((3,5-Dicyano-4-ethyl-6-(4-(1-hydroxy-2-methylpropan-2-yl)piperazin-1-yl)pyridin-2-yl)thio)-2-(4-fluorophenyl)acetamide] | 316 to 1000 | 1000 to 31600 | – | –
CCc1c(C#N)c(SC(C(N)=O)c2cccc(C(F)(F)F)c2)nc(N2CCCN(C)CC2)c1C#N (stereo not drawn) [Example 223, 2-((3,5-Dicyano-4-ethyl-6-(4-methyl-1,4-diazepan-1-yl)pyridin-2-yl)thio)-2-(3-(trifluoromethyl)phenyl)acetamide] | 1000 to 31600 | 316 to 1000 | – | –
CCc1c(C#N)c(SC(C(N)=O)c2ccccc2)nc(N2CCC(OCCO)CC2)c1C#N (stereo not drawn) [Example 224, 2-((3,5-Dicyano-4-ethyl-6-(4-(2-hydroxyethoxy)piperidin-1-yl)pyridin-2-yl)thio)-2-phenylacetamide] | 316 to 1000 | 316 to 1000 | – | –

From US10975056B2 (GlaxoSmithKline Intellectual Property Development Limited, priority 2016, dated 2021)
